Measurements taken from patent US11058688B2, “Imidazopiperazine inhibitors of transcription activating proteins” (Board of Regents, The University of Texas System, priority 2018, dated 2021).

Columns and labels:
BRD4(49-170) bromodomain = BRD4(49-170) bromodomain (Homo sapiens (Human), UniProt O60885); assay: BRD4 AlphaScreen Assay; conditions: binding to biotin-H4(1-21) Ac-K5/8/12/16 peptide
Outline: (§1)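 IC50 values derived by variable-slope dose-response fit between negative and DMSO control signals. AlphaScreen signal reports bromodomain association with an H4(1-21) peptide acetylated at K5, K8, K12 and K16.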

[1] = target: GST-CBP(1081-1197) bromodomain (Homo sapiens (Human), UniProt Q92793); assay: CBP AlphaScreen Assay; conditions: binding to biotin-H4(1-21) Ac-K5/8/12/16 peptide
GST-CBP(1081-1197) bromodomain, sequence (Q92793 1081-1197): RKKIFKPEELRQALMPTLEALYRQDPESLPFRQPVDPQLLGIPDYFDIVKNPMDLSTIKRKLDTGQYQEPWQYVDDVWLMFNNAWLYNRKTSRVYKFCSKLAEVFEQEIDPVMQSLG
Outline: as §1

IC50 (BRD4(49-170) bromodomain) [nM] | IC50 [1] [nM] | SMILES
> 25000 | 1280 | CC(=O)N1CCn2c(C3CC3)nc(N3CCCc4cc(-c5cnn(Cc6ccccn6)c5)ccc43)c2C1 [Example 116, 1-(3-cyclopropyl-1-(6-(1-(pyridin-2-ylmethyl)-1H-pyrazol-4-yl)-3,4-dihydroquinolin-1(2H)-yl)-5,6-dihydroimidazo[1,5-a]pyrazin-7(8H)-yl)ethan-1-one]
> 25000 | 739 | CNC(=O)c1cc(-c2ccc3c(c2)CCCN3c2nc(C3CC3)n3c2CN(C(C)=O)CC3)ccn1 [Example 117, 4-(1-(7-acetyl-3-cyclopropyl-5,6,7,8-tetrahydroimidazo[1,5-a]pyrazin-1-yl)-1,2,3,4-tetrahydroquinolin-6-yl)-N-methylpicolinamide]
> 25000 | 715 | CC(=O)N1CCn2c(C3CC3)nc(N3CCCc4cc(-c5ccnc(C(F)(F)F)c5)ccc43)c2C1 [Example 118, 1-(3-cyclopropyl-1-(6-(2-(trifluoromethyl)pyridin-4-yl)-3,4-dihydroquinolin-1(2H)-yl)-5,6-dihydroimidazo[1,5-a]pyrazin-7(8H)-yl)ethan-1-one]
> 25000 | 313 | CC(=O)N1CCn2c(C3CC3)nc(N3CCCc4cc(-c5cnn(C6CCC6)c5)ccc43)c2C1 [Example 119, 1-(1-(6-(1-cyclobutyl-1H-pyrazol-4-yl)-3,4-dihydroquinolin-1(2H)-yl)-3-cyclopropyl-5,6-dihydroimidazo[1,5-a]pyrazin-7(8H)-yl)ethan-1-one]
> 25000 | 358 | CC(=O)N1CCn2c(C3CC3)nc(N3CCCc4cc(-c5cccc(S(N)(=O)=O)c5)ccc43)c2C1 [Example 120, 3-(1-(7-acetyl-3-cyclopropyl-5,6,7,8-tetrahydroimidazo[1,5-a]pyrazin-1-yl)-1,2,3,4-tetrahydroquinolin-6-yl)benzenesulfonamide]
> 25000 | 576 | CC(=O)N1CCn2c(C3CC3)nc(N3CCCc4cc(-c5cnn(CCO)c5)ccc43)c2C1 [Example 121, 1-(3-cyclopropyl-1-(6-(1-(2-hydroxyethyl)-1H-pyrazol-4-yl)-3,4-dihydroquinolin-1(2H)-yl)-5,6-dihydroimidazo[1,5-a]pyrazin-7(8H)-yl)ethan-1-one]
> 25000 | 500 | CC(=O)N1CCn2c(C3CC3)nc(N3CCCc4cc(-c5cnn(CCN6CCOCC6)c5)ccc43)c2C1 [Example 122, 1-(3-cyclopropyl-1-(6-(1-(2-morpholinoethyl)-1H-pyrazol-4-yl)-3,4-dihydroquinolin-1(2H)-yl)-5,6-dihydroimidazo[1,5-a]pyrazin-7(8H)-yl)ethan-1-one]
> 25000 | 19 | CNC(=O)N1CCn2c(C3CCOCC3)nc(-c3cccc4nc(-c5cnn(C)c5)c(C(F)F)cc34)c2C1 [Example 123, 1-(3-(difluoromethyl)-2-(1-methyl-1H-pyrazol-4-yl)quinolin-5-yl)-N-methyl-3-(tetrahydro-2H-pyran-4-yl)-5,6-dihydroimidazo[1,5-a]pyrazine-7(8H)-carboxamide]
6480 | 2 | CNC(=O)N1CCn2c(C3CC3)nc(-c3cccc4cc(-c5cnn(C)c5)ncc34)c2C1 [Example 124, 3-cyclopropyl-N-methyl-1-(3-(1-methyl-1H-pyrazol-4-yl)isoquinolin-8-yl)-5,6-dihydroimidazo[1,5-a]pyrazine-7(8H)-carboxamide]
> 10000 | 19 | CNC(=O)N1Cc2c(-c3cccc4cc(-c5cnn(C)c5)ncc34)nc(C3CC3)n2CC1C (stereo not shown) [Example 125, 3-cyclopropyl-N,6-dimethyl-1-(3-(1-methyl-1H-pyrazol-4-yl)isoquinolin-8-yl)-5,6-dihydroimidazo[1,5-a]pyrazine-7(8H)-carboxamide]
17100 | 39 | CNC(=O)N1Cc2c(-c3cccc4cc(-c5cnn(C)c5)ncc34)nc(C3CC3)n2C(C)C1 (stereo not shown) [Example 126, 3-cyclopropyl-N,5-dimethyl-1-(3-(1-methyl-1H-pyrazol-4-yl)isoquinolin-8-yl)-5,6-dihydroimidazo[1,5-a]pyrazine-7(8H)-carboxamide]
